Measurements: publication PMC8197230, “Orientated Immobilization of FAD-Dependent Glucose Dehydrogenase on Electrode by Carbohydrate-Binding Module Fusion for Efficient Glucose Assay” (International Journal of Molecular Sciences, 2021)

Assays:
[1] = system: T1, GDH (wild-type FAD-GDH); assay: PMS/DCIP spectrophotometric assay at […] nm, Michaelis-Menten non-linear fit; type: biochemical, Aspergillus niger; conditions: 0.1 M phosphate buffer pH 6.0, 37 °C; PMS and DCIP as electron acceptors; free enzyme
T1 construct: signal peptide (first 63 bp, 21 residues) removed; C-terminal His tag kept; secreted from Pichia pastoris GS115 (pPIC9k), glycosylated; Ni-purified

[2] = system: T2, GDH-NL-CBM2; assay: as above; type: biochemical, Aspergillus niger; conditions: 0.1 M phosphate buffer pH 6.0, 37 °C; PMS and DCIP as electron acceptors; free enzyme
T2 construct: gene FAD-GDH; secreted from Pichia pastoris GS115, Ni-purified

Km [1]: 12.3 mM
Km [2]: 11.8 mM
Compound: OC[C@H]1OC(O)[C@H](O)[C@@H](O)[C@@H]1O (some centres unmarked) [glucose]
